Source: patent US20020192231A1, “Method of increasing anti-neuGc antibody levels in blood” (Immucom Inc., priority 2001, published 2002)

Tests used:
[1] = test system: human anti-nonαGal (anti-NeuGc); test: Inhibition of human anti-nonαGal binding to pRBC by sialic acids, flow cytometry; conditions: for effect on antibody binding to pRBC: antibodies preincubated with 10 mM sialic acid
Experimental: FIG. 1. Flow cytometry analysis of human anti-nonαGal. The antibodies were incubated with pRBC (type O) at room temperature for 30 min. Anti-human IgG (H+L) conjugated with R-phycoerythrin (PE) was used as a second antibody. (A) The antibodies were bound to untreated (peak 1) or sialidase-treated (peak 2) pRBC. In an inhibition assay, the antibodies were preincubated with NeuAc (peak 3) or NeuGc (peak 4) prior to binding with untreated pRBC. Cells plus the secondary antibody (peak 5) was used as background controls for the flow cytometry. (B) The antibodies were pre-incubated with increasing concentrations of NeuGc (●) or NeuAc (∘) prior to flow cytometry analysis. The percentage of binding (% MFI) was plotted against sialic acid concentrations. Human anti-nonαGal was prepared by depleting anti-αGal from the total xenoreactive antibodies in the serum (31). […] On the other hand, pre-treatment of fresh pRBC with a number of other exoglycosidases (β-galactosidase, α-N-acetylgalactosaminidase and hexosaminidase) had no effect on antibody binding (data not shown). To elucidate the nature of antigens recognized by anti-nonαGal, the antibodies were preincubated with 10 mM NeuGc or NeuAc prior to the binding with pRBC.

post-immune IgY = test: Inhibition of chicken post-immune IgY binding to pRBC, flow cytometry; conditions: pre-incubation with 3.75 mM NeuGc
Experimental: FIG. 3. Flow cytometry analysis of chicken antibody raised against porcine gangliosides. The antibody sample was incubated with α-galactosidase pRBC (type O) at room temperature for 0.5 hour. Anti-chicken IgG (H+L) conjugated with FITC was used as a second antibody. Cells alone or cells plus the secondary antibody (1) were used as a background control for the flow cytometry (Becton Dickinson). Chicken antibodies (0.1 ul each) prepared from pre-immune eggs (2) and post-immune eggs (3) were analyzed by flow cytometry analysis. Post-immune antibodies were pre-incubated with 3.75 mM NeuGc (4) or 3.75 mg/ml porcine gangliosides (5) prior to the analysis. To examine the effect of ganglioside immunization and level of induced antibodies in eggs, IgY prepared from pre-immune eggs and post-immune eggs were analyzed by flow cytometry analysis using α-galactosidase-treated pRBC. […] We are collecting 20-25 eggs per hen per month.

chicken anti-NeuGc = test: Inhibition of purified chicken anti-NeuGc binding to pRBC, flow cytometry; conditions: at 9.5 mM of NeuGc
Experimental: (§1) FIG. 5. Selective inhibition of chicken anti-NeuGc and anti-gangliosides. (A) Prior to flow cytometry analysis, both antibodies were pre-incubated with increased amount of NeuGc. (B) Both antibodies were pre-incubated with increasing amount of porcine gangliosides. To further purify chicken antibodies that bind to the thyroglobulin column, we eluted the column with PBS containing NeuGc, followed by glycine-HCI, pH 2.5. The two resultant fractions are designated as anti-NeuGc and anti-gangliosides, respectively, based on detailed characterization of their binding specificities as described below. Quantitatively, there are roughly ten times more anti-NeuGc than anti-gangliosides activity in the chicken antibodies based on flow cytometry analysis (assuming there are the same amounts of binding sites for both antibodies on pRBC). Both of antibody fractions, anti-NeuGc and anti-gangliosides, derived from further purification of the post-immune IgY bind to pRBC in flow cytometry.

[2] = test system: breast cancer cell line MCF-7; test: ECL fluorescence immunoassay on fixed MCF-7 cells; assay type: cell-based; conditions: 30 mM NeuGc
Experimental: More recently, we have succeeded in detecting NeuGc antigen in breast cancer cell line MCF-7 using purified chicken anti-NeuGc antibody. Cells are seeded in chambered slides under cell culture conditions. After growing upto 80%-90% confluence (approximately 2-3 days), cells are gently washed with PBS, pH 7.2, and then fixed in 300 ul methanol for 5 min at room temperature. The chambered slides are blocked with PBS containing 2% BSA prior to the incubation with purified chicken anti-NeuGc in a ECL fluorescence immunoassay. […] Its binding specificity was confirmed by inhibition with 30 mM NeuGc.

[3] = test system: chicken anti-gangliosides; test: Inhibition of purified chicken anti-gangliosides binding to pRBC, flow cytometry; conditions: pre-incubation with NeuGc
Experimental: as §1

SMILES | inhibition of antibody binding ([1]; NeuAc as high as 6 mM) | effect on antibody binding to pRBC [1] | inhibition of binding activity (post-immune IgY) | inhibition of anti-NeuGc binding (chicken anti-NeuGc) | inhibition of anti-NeuGc binding to MCF-7 cells [2] | maximal inhibition of anti-gangliosides binding [3] | inhibition of human anti-NeuGc activity by pre-incubation ([1]; anti-NeuGc purified from normal human sera) | inhibition of antibody binding ([1]; at 1.2 mM of NeuGc) | IC50 ([1]; based on mean fluorescent intensity (MFI), read-out: I50 value (concentration that gives rise to 50% inhibition)) [µM]
CC(=O)N[C@H]1[C@H]([C@H](O)[C@H](O)CO)OC(O)(C(=O)O)C[C@@H]1O (stereo partly shown) [NeuAc, N-acetylneuraminic acid] | essentially no inhibition | no effect | – | – | – | – | – | – | –
O=C(CO)N[C@H]1[C@H]([C@H](O)[C@H](O)CO)OC(O)(C(=O)O)C[C@@H]1O (stereo partly shown) [NeuGc, N-glycolylneuraminic acid] | – | strong inhibitory effect | partially inhibited | more than 95% | inhibition | approximately 30% | specifically inhibited | Ninety | ~73
